These results are taken from publication PMC10020548, “Synthesis and structure–activity relationship studies of benzimidazole-thioquinoline derivatives as α-glucosidase inhibitors” (Scientific Reports, 2023).

Data set [1] deals with T1, α-Glucosidase enzyme (EC3.2.1.20, Saccharomyces cerevisiae) (Saccharomyces cerevisiae, UniProt P53341).
T1 construct: purchased Sigma-Aldrich
Nature of the data set: biochemical. The settings on record: α-glucosidase from S. cerevisiae, substrate p-nitrophenyl glucopyranoside, pH 6.8, 37 °C; mean ± SD. As to the method:
α-Glucosidase enzyme (EC3.2.1.20, Saccharomyces cerevisiae, 20 U/mg) and substrate (p-nitrophenyl glucopyranoside) were purchased from Sigma-Aldrich. 1 mg of α-glucosidase was dissolved in potassium phosphate buffer (50 mM, pH = 6.8) to obtain the initial activity of 1 U ml^–1. Then, 20 µl of this enzyme solution was incubated with 135 µl of potassium phosphate buffer and 20 µl of test compound at various concentrations in DMSO. Therefore, the final concentration of the enzyme was about 0.1 U ml^–1. After 10 min incubation at 37 °C, 25 µl of the substrate at a final concentration of 4 mM was added to the mixture and allowed to incubate at 37 °C for 20 min.
The percentage of inhibition for each entry was calculated by using the following formula: %Inhibition=[(Abscontrol-Abssample)/Abscontrol]×100 IC50 values were obtained from the nonlinear regression curve using the Logit method.

The target of data set [2] is α-glucosidase. The settings on record: cited from earlier work.
The test system of a further data set is LO2 cells. Also noted: method as in PMID 34717239. The settings on record: cited from earlier work.
The subject of data set [3] is α-glucosidase. Set-up: method as in PMID 34717239. The conditions noted are these: cited from earlier work.
For data set [4], the target named is α-glucosidase (Saccharomyces cerevisiae, UniProt P53341). Nature of the data set: Enzyme kinetic studies (Lineweaver–Burk plot, secondary plot). It is filed as biochemical. As to the method: A Lineweaver–Burk plot was generated to identify the type of inhibition and the Michaelis–Menten constant (Km) value was determined from the plot between the reciprocal of the substrate concentration (1/[S]) and reciprocal of enzyme rate (1/V) over various inhibitor concentrations. The experimental inhibitor constant (Ki) value was constructed by secondary plots of the inhibitor concentration [I] versus Km[43],[44].

Structures are written as SMILES. Like-named read-outs stand apart in the source and are kept apart here.

Broadly, the IC50 is the midpoint of a concentration-inhibition curve. What is called Ki is the dissociation constant of the complex between target and ligand, obtained from inhibition or displacement.

Sequence of α-glucosidase (Saccharomyces cerevisiae, UniProt P53341) (P53341 whole entry): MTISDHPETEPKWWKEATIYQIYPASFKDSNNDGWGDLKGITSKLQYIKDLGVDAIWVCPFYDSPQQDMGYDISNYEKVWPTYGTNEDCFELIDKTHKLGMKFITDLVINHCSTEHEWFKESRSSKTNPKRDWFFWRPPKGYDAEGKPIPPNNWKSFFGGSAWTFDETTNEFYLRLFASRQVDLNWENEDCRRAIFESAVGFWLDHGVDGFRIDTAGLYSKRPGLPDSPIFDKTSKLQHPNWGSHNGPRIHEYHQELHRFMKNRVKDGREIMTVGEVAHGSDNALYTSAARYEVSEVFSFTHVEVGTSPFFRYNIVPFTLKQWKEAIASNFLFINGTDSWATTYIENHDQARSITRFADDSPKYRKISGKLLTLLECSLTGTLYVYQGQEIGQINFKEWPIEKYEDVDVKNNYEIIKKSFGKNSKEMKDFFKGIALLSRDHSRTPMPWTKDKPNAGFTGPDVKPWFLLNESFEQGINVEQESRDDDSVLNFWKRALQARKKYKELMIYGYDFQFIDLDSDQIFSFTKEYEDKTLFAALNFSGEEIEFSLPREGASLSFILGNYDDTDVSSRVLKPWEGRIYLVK
T1 sequence (P53341 whole entry): as above

Turning to `Cc1cccc(CSc2nc3ccccc3cc2-c2nc3ccccc3[nH]2)c1C` [Compound 6o, 3-(1H-benzo[d]imidazol-2-yl)-2-((2,3-dimethylbenzyl)thio)quinoline], in data set [1], the IC50 is 126.9 ± 0.5 µM.

`Cc1cc2nc(-c3ccc(C(=O)N/N=C/c4cc(O)c(O)c(O)c4)cc3)[nH]c2cc1C` [G]: the IC50 on α-glucosidase [2] (benzimidazole derivatives (Zawawi and coworkers), read-out: IC50) is 8.4 ± 0.76 µM.

As for `O=c1c(C(c2c[nH]c3ccccc23)c2c[nH]c3ccccc23)cc2ccccc2n1Cc1ccccc1` [Compound D], the IC50 at α-glucosidase [2] (quinolone-bis(indolyl)methane hybrids study, read-out: IC50) is 21.8 ± 1.8 µM.

On to `Cc1cccc2nc(-c3ccccc3Cl)[nH]c12` [H], for which the concentration for half-maximal inhibition (IC50) at α-glucosidase [2] (benzimidazole of previous studies, read-out: IC50) was 5.3 ± 0.1 µM. Turning to `Brc1ccc(CNc2cccc(-c3nc4ccccc4[nH]3)c2)cn1` [E], the IC50 on α-glucosidase [2] (in-house library hit, read-out: IC50) is 37.9 ± 1.86 µM.

Consider `COc1ccc(CSc2nc3ccccc3cc2-c2nc3ccccc3[nH]2)cc1` [Compound 6q, 3-(1H-benzo[d]imidazol-2-yl)-2-((4-methoxybenzyl)thio)quinoline], for which the IC50 in data set [1] was 67.3 ± 0.8 µM.

In turn, `CCSc1nc2ccccc2cc1-c1nc2ccccc2[nH]1` [Compound 6r, 3-(1H-benzo[d]imidazol-2-yl)-2-(ethylthio)quinoline] showed an IC50 in data set [1] of 300.7 ± 2 µM. The same measure, in the same setting: to `Fc1cccc(CSc2nc3ccccc3cc2-c2nc3ccccc3[nH]2)c1` [Compound 6c, 3-(1H-benzo[d]imidazol-2-yl)-2-((3-fluorobenzyl)thio)quinoline] belongs 76.7 ± 0.7 µM.

`O=C(O)c1ccc2ccccc2n1` [Compound A, Quinoline-2-carboxylic acid]: on α-glucosidase [2], the IC50 was 9.1 ± 2.3 µg/mL.

`c1ccc(CSc2nc3ccccc3cc2-c2nc3ccccc3[nH]2)cc1` [Compound 6a, 3-(1H-benzo[d]imidazol-2-yl)-2-(benzylthio) quinoline]: 153.7 ± 0.9 µM corresponded to half-maximal inhibition in data set [1] (IC50).

For `CC(C)(C)c1ccc(C(=O)Oc2cccc(-c3nc4ccccc4[nH]3)c2)cc1` [F], the “cytotoxicity against LO2 cells” value in the data set with LO2 cells is recorded as “no cytotoxicity”. Moreover, the “type of inhibition (kinetic study)” value in the data set with α-glucosidase [3] is “non-competitive inhibition”. Also, on α-glucosidase [2] (2-phenyl-1H-benzo[d]imidazole derivatives, read-out: IC50), the IC50 is 0.71 ± 0.02 µM. Compound `Clc1cccc(CSc2nc3ccccc3cc2-c2nc3ccccc3[nH]2)c1` [Compound 6f, 3-(1H-benzo[d]imidazol-2-yl)-2-((3-chlorobenzyl)thio)quinoline] had an IC50 in data set [1] of 48.2 ± 0.4 µM. With `O=C(N/N=C/c1ccc(O)c(O)c1)c1ccc(-c2nnc(-c3ccc4ncccc4c3)o2)cc1` [Compound B], at α-glucosidase [2] (oxadiazole-quinoline study, read-out: IC50), the IC50 was 2.6 ± 0.01 µM. In the case of `Fc1ccccc1CSc1nc2ccccc2cc1-c1nc2ccccc2[nH]1` [Compound 6b, 3-(1H-benzo[d]imidazol-2-yl)-2-((2-fluorobenzyl)thio)quinoline], in data set [1], the IC50 was 188 ± 2.4 µM. On the same count and under the same terms, to `Fc1ccc(CSc2nc3ccccc3cc2-c2nc3ccccc3[nH]2)cc1` [Compound 6d, 3-(1H-benzo[d]imidazol-2-yl)-2-((4-fluorobenzyl)thio)quinoline] belongs 80.9 ± 1.1 µM. Turning to `O=C(N/N=C/c1ccc(O)c(O)c1)c1ccc2ncccc2c1` [Compound C], at α-glucosidase [2] (quinoline derivatives study, read-out: IC50), the concentration for half-maximal inhibition (IC50) was 6.2 ± 0.3 µM. Consider `Clc1ccccc1CSc1nc2ccccc2cc1-c1nc2ccccc2[nH]1` [Compound 6e, 3-(1H-benzo[d]imidazol-2-yl)-2-((2-chlorobenzyl)thio)quinoline], for which, in data set [1], the IC50 came out at 663.7 ± 1.2 µM. In turn, `Clc1ccc(CSc2nc3ccccc3cc2-c2nc3ccccc3[nH]2)cc1` [Compound 6g, 3-(1H-benzo[d]imidazol-2-yl)-2-((4-chlorobenzyl)thio)quinoline] displayed an IC50 in data set [1] of 96.6 ± 0.1 µM. Still for that read-out and setting: with `Cc1cccc(CSc2nc3ccccc3cc2-c2nc3ccccc3[nH]2)c1` [Compound 6m, 3-(1H-benzo[d]imidazol-2-yl)-2-((3-methylbenzyl)thio)quinoline] the figure was 158 ± 2.4 µM.

Take `O=[N+]([O-])c1ccc(CSc2nc3ccccc3cc2-c2nc3ccccc3[nH]2)cc1` [Compound 6p, 3-(1H-benzo[d]imidazol-2-yl)-2-((4-nitrobenzyl)thio)quinoline]: it took 89.2 ± 1.3 µM to reach half-maximal inhibition in data set [1] (IC50). Turning to `Brc1ccc(CSc2nc3ccccc3cc2-c2nc3ccccc3[nH]2)cc1` [Compound 6j, 3-(1H-benzo[d]imidazol-2-yl)-2-((4-bromobenzyl)thio)quinoline], half-maximal inhibition in data set [1] (IC50) required 28 ± 0.6 µM. Moreover, at α-glucosidase [4] (secondary plot of Km versus inhibitor concentration, read-out: inhibition constant, Ki), the inhibitory constant (Ki) was determined as 28.1 µM. Also, the “inhibition pattern (Lineweaver–Burk plot)” value on α-glucosidase [4] (substrate p-nitrophenyl α-D-glucopyranoside 1–16 mM, inhibitor 0, 7, 14, 28 µM) is listed as “competitive inhibition”. On to `Brc1ccccc1CSc1nc2ccccc2cc1-c1nc2ccccc2[nH]1` [Compound 6h, 3-(1H-benzo[d]imidazol-2-yl)-2-((2-bromobenzyl)thio)quinoline], for which 133.5 ± 1.3 µM corresponded to half-maximal inhibition in data set [1] (IC50). Same read-out and setting: with `Cc1ccccc1CSc1nc2ccccc2cc1-c1nc2ccccc2[nH]1` [Compound 6l, 3-(1H-benzo[d]imidazol-2-yl)-2-((2-methylbenzyl)thio)quinoline] the figure was 195.7 ± 0.6 µM; with `Clc1ccc(CSc2nc3ccccc3cc2-c2nc3ccccc3[nH]2)cc1Cl` [Compound 6k, 3-(1H-benzo[d]imidazol-2-yl)-2-((3,4-dichlorobenzyl)thio)quinoline], 99.4 µM; with `Brc1cccc(CSc2nc3ccccc3cc2-c2nc3ccccc3[nH]2)c1` [Compound 6i, 3-(1H-benzo[d]imidazol-2-yl)-2-((3-bromobenzyl)thio)quinoline], 65.5 ± 2 µM. On the same count and under the same terms, to `Cc1ccc(CSc2nc3ccccc3cc2-c2nc3ccccc3[nH]2)cc1` [Compound 6n, 3-(1H-benzo[d]imidazol-2-yl)-2-((4-methylbenzyl)thio)quinoline] belongs 116.6 ± 0.5 µM.
